# Literature values in paper PMC3117075 (Journal of medicinal chemistry, 2011).
# Target: BRCT(BRCA1) (Homo sapiens, UniProt P38398)
# Settings: previously reported value
# BRCT(BRCA1), sequence (P38398 1646-1859 limits assumed): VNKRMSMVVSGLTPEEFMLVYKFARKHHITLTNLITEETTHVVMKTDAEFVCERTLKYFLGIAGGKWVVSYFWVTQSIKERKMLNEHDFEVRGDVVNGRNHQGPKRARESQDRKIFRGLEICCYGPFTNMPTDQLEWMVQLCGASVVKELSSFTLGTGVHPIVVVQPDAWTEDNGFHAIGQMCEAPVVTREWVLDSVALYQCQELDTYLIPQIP
substance,measurement,value
ISRSTpSPTFNKQT,ΔCp (change in heat capacity at constant pressure),-340 ± 30 cal mol-1 K-1
